Laboratory results: patent publication US8822699B2, “Heterocyclic compound and use thereof” (Takeda Pharmaceutical Company Limited, priority 2010, dated 2014)
Like-named read-outs stand apart in the source and are kept apart here.

Test system: Aβ42 production in primary nerve cells
Test: Measurement of amyloid β production inhibition rate using primary nerve cell (Aβ42 sandwich ELISA)
Format: cell-based
Details: primary nerve cells from cerebral cortex of SD rat fetus, cultured 3 days with compound, culture supernatant, sandwich ELISA for Aβ42, read-out: Aβ42 production inhibitory activity IC50
Protocol: Measurement of Amyloid β Production Inhibition Rate Using Primary Nerve Cell
The primary nerve cells were collected from the cerebral cortex of rat fetus (CLEA Japan, Inc.: SD rat, fetal life 17 days of age), and suspended in a neurobasal medium containing B27 supplement, L-glutamine, penicillin-streptomycin (manufactured by Invitrogen) at 500,000 cells/mL. Then, the suspension was seeded in poly L-lysine-coated 96 well plate (manufactured by SUMITOMO BAKELITE) by 100 μL, and cultured at 37° C., 5% CO2 for 7 days. The medium was completely removed, and a new neurobasal medium was added at 75 μL/well. Thereto was added (75 μL/well) a neurobasal medium supplemented with a 2-fold measurement concentration of an evaluation target compound, and the mixture was cultured for 3 days. The culture supernatant was collected from each well, diluted as appropriate, applied to sandwich ELISA between BNT77 antibody-BA27 antibody (for Aβ40) and sandwich ELISA between BNT77 antibody-3005 antibody (for Aβ42), and the amounts of Aβ40 and Aβ42 were measured.
The amyloid β production inhibition rate (%) of the compound was calculated by the following formula. (1−(amyloid β production amount with addition of compound)/(amyloid β production amount without addition of compound))×100
The amyloid β production 50% inhibitory rate (IC50 value) was calculated using the statistical analysis software (SAS Preclinical Package) as the concentration of the compound showing 50% inhibition when the amyloid β production amount without addition of the compound is 100%. In addition, a new neurobasal medium was added (75 μL/well) to the cells after collection of the culture supernatant, and the cells were left standing for about 30 min to reach room temperature. Cell-Titer Glo Luminescent Cell Viability Assay (manufactured by Promega) was added at 75 μL/well, and the plate was shaken for 2 min and reacted for about 10 min.

IC50 [nM]	IC50 (Rattus norvegicus, 72 h) [nM]	Compound
459	–	COc1cc(-c2nnc3n2CCCC3(C)c2ccc(Cl)cc2)ccc1-c1cnc(C)o1 (single isomer, unassigned) [Example 3, 8-(4-chlorophenyl)-3-[3-methoxy-4-(2-methyl-1,3-oxazol-5-yl)phenyl]-8-methyl-5,6,7,8-tetrahydro[1,2,4]triazolo[4,3-a]pyridine]
32	–	COc1cc(-c2nnc3n2CCCC3(C)c2ccc(Cl)cc2)ccc1-c1cnc(C)o1 (single isomer, unassigned) [Example 4, optically active 8-(4-chlorophenyl)-3-[3-methoxy-4-(2-methyl-1,3-oxazol-5-yl)phenyl]-8-methyl-5,6,7,8-tetrahydro[1,2,4]triazolo[4,3-a]pyridine]
35	–	COc1cc(-c2nnc3n2CCCC3(CC2CC2)c2ccc(F)c(F)c2)ccc1-c1cnc(C)o1 (centres unmarked) [Example 20, 8-(cyclopropylmethyl)-8-(3,4-difluorophenyl)-3-[3-methoxy-4-(2-methyl-1,3-oxazol-5-yl)phenyl]-5,6,7,8-tetrahydro[1,2,4]triazolo-[4,3-a]pyridine]
–	143	COc1cc(-c2nnc3n2CCCC3(c2ccc(F)c(F)c2)C(C)(C)O)ccc1-c1cnc(C)o1 (centres unmarked) [Example 32, 2-{8-(3,4-difluorophenyl)-3-[3-methoxy-4-(2-methyl-1,3-oxazol-5-yl)phenyl]-5,6,7,8-tetrahydro[1,2,4]triazolo[4,3-a]pyridin-8-yl}propan-2-ol]
31	–	COc1cc(-c2nnc3n2CCCC3(Cc2ccc(F)c(F)c2)C(C)(C)O)ccc1-c1cnc(C)o1 (centres unmarked) [Example 49, 2-{8-(3,4-difluorobenzyl)-3-[3-methoxy-4-(2-methyl-1,3-oxazol-5-yl)phenyl]-5,6,7,8-tetrahydro[1,2,4]triazolo[4,3-a]pyridin-8-yl}propan-2-ol]
14	–	COc1cc(-c2nnc3n2CCCC3(Cc2ccc(F)c(F)c2)C(C)(C)O)ccc1-c1cnc(C)o1 (centres unmarked) [Example 50, optically active 2-{8-(3,4-difluorobenzyl)-3-[3-methoxy-4-(2-methyl-1,3-oxazol-5-yl)phenyl]-5,6,7,8-tetrahydro[1,2,4]triazolo[4,3-a]pyridin-8-yl}propan-2-ol]
–	50	COc1cc(-c2nnc3n2CCCC3(Cc2ccc(F)c(F)c2)C(=O)N(C)CC(F)(F)F)ccc1-c1cnc(C)o1 (centres unmarked) [Example 60, 8-(3,4-difluorobenzyl)-3-[3-methoxy-4-(2-methyl-1,3-oxazol-5-yl)phenyl]-N-methyl-N-(2,2,2-trifluoroethyl)-5,6,7,8-tetrahydro[1,2,4]triazolo[4,3-a]pyridine-8-carboxamide]
–	10	COc1cc(-c2nnc3n2CCCC3(Oc2ccc(Cl)c(F)c2)C(C)(C)O)ccc1-c1cnc(C)o1 (centres unmarked) [Example 70, 2-{8-(4-chloro-3-fluorophenoxy)-3-[3-methoxy-4-(2-methyl-1,3-oxazol-5-yl)phenyl]-5,6,7,8-tetrahydro[1,2,4]triazolo[4,3-a]pyridin-8-yl}propan-2-ol]
–	55	COc1cc(-c2nnc3n2CCCC3(CC2CC2)c2ccc(Cl)c(C(F)(F)F)c2)ccc1-n1cnc(C)c1 (centres unmarked) [Example 78, 8-[4-chloro-3-(trifluoromethyl)phenyl]-8-(cyclopropylmethyl)-3-[3-methoxy-4-(4-methyl-1H-imidazol-1-yl)phenyl]-5,6,7,8-tetrahydro[1,2,4]triazolo-[4,3-a]pyridine]
–	148	COc1cc(-c2nnn3c2CCCC3(C)c2ccc(Cl)c(Cl)c2)ccc1-n1cnc(C)n1 (centres unmarked) [Example 91, 7-(3,4-dichlorophenyl)-3-[3-methoxy-4-(3-methyl-1H-1,2,4-triazol-1-yl)phenyl]-7-methyl-4,5,6,7-tetrahydro[1,2,3]triazolo[1,5-a]pyridine]
–	34	COc1cc(-c2nnc3n2CCCC3(Oc2ccc(C(F)(F)F)cn2)C(C)(C)O)ccc1-c1cnc(C)o1 (centres unmarked) [Example 95, 2-(3-[3-methoxy-4-(2-methyl-1,3-oxazol-5-yl)phenyl]-8-{[5-(trifluoromethyl)pyridin-2-yl]oxy}-5,6,7,8-tetrahydro[1,2,4]triazolo-[4,3-a]pyridin-8-yl)propan-2-ol]
–	67	COc1cc(-c2nnc3n2CCCC3(OCc2ccc(F)c(F)c2)C(=O)N(C)CC(F)(F)F)ccc1-c1cnc(C)o1 (centres unmarked) [Example 108, 8-[(3,4-difluorobenzyl)oxy]-3-[3-methoxy-4-(2-methyl-1,3-oxazol-5-yl)phenyl]-N-methyl-N-(2,2,2-trifluoroethyl)-5,6,7,8-tetrahydro[1,2,4]triazolo[4,3-a]pyridine-8-carboxamide]
–	123	COc1nc(-c2nnc3n2CCCC3(Oc2ccc(F)c(F)c2)C(C)(C)O)ccc1-n1cnc(C)c1 (centres unmarked) [Example 135, 2-{8-(3,4-difluorophenoxy)-3-[6-methoxy-5-(4-methyl-1H-imidazol-1-yl)pyridin-2-yl]-5,6,7,8-tetrahydro[1,2,4]triazolo[4,3-a]pyridin-8-yl}propan-2-ol]
–	41	COc1cc(-c2nnc3n2CCCC3(Sc2ccc(F)c(F)c2)C(C)(C)O)ccc1-c1cnc(C)o1 (centres unmarked) [Example 140, 2-{8-[(3,4-difluorophenyl)sulfanyl]-3-[3-methoxy-4-(2-methyl-1,3-oxazol-5-yl)phenyl]-5,6,7,8-tetrahydro[1,2,4]triazolo[4,3-a]pyridin-8-yl}propan-2-ol]
–	118	COc1cc(-c2nnc3n2CC(C)CC3(Oc2ccc(F)c(F)c2)C(C)(C)O)ccc1-c1cnc(C)o1 (stereo not drawn) [Example 150, (6RS,8RS or 6RS,8SR)-2-{8-(3,4-difluorophenoxy)-3-[3-methoxy-4-(2-methyl-1,3-oxazol-5-yl)phenyl]-6-methyl-5,6,7,8-tetrahydro[1,2,4]triazolo[4,3-a]pyridin-8-yl}propan-2-ol]
–	19	COc1cc(-c2nnc3n2CCCC3(Oc2cc(F)c(F)c(F)c2)C(=O)N(C)CC(F)(F)F)ccc1-c1cnc(C)o1 (centres unmarked) [Example 160, 3-[3-methoxy-4-(2-methyl-1,3-oxazol-5-yl)phenyl]-N-methyl-N-(2,2,2-trifluoro-ethyl)-8-(3,4,5-trifluorophenoxy)-5,6,7,8-tetrahydro-[1,2,4]triazolo[4,3-a]pyridine-8-carboxamide]
–	143	COc1cc(-c2nnc3n2CCCC3(Oc2cc(F)c(F)c(F)c2)C(C)(C)O)ccc1-n1cnc(Cl)c1 (centres unmarked) [Example 165, 2-{3-[4-(4-chloro-1H-imidazol-1-yl)-3-methoxyphenyl]-8-(3,4,5-trifluorophenoxy)-5,6,7,8-tetrahydro[1,2,4]triazolo[4,3-a]pyridin-8-yl}propan-2-ol]
–	360	Cc1ncc(-c2ccc(-c3nnc4n3CCCC4(Oc3cc(F)c(F)c(F)c3)C(C)(C)O)cc2F)o1 (centres unmarked) [Example 166, 2-{3-[3-fluoro-4-(2-methyl-1,3-oxazol-5-yl)phenyl]-8-(3,4,5-trifluorophenoxy)-5,6,7,8-tetrahydro[1,2,4]triazolo[4,3-a]pyridin-8-yl}propan-2-ol]
–	40	Cc1ncc(-c2ccc(-c3nnc4n3CCCC4(Oc3ccc(F)c(F)c3)C(C)(C)O)cc2O)o1 (centres unmarked) [Example 168, 5-[8-(3,4-difluorophenoxy)-8-(1-hydroxy-1-methylethyl)-5,6,7,8-tetrahydro[1,2,4]triazolo[4,3-a]pyridin-3-yl]-2-(2-methyl-1,3-oxazol-5-yl)phenol]
–	44	COc1cc(-c2nnc3n2CCCC3(Oc2cc(F)c(F)c(F)c2)C(C)(C)O)ccc1-c1ccnc(C)c1 (centres unmarked) [Example 174, 2-{3-[3-methoxy-4-(2-methylpyridin-4-yl)phenyl]-8-(3,4,5-trifluorophenoxy)-5,6,7,8-tetrahydro[1,2,4]triazolo[4,3-a]pyridin-8-yl}propan-2-ol]
–	103	Cc1ncc(-c2ccc(-c3nnc4n3CCCC4(Oc3ccc(F)c(F)c3)C(C)(C)O)cc2OCC(F)F)o1 (centres unmarked) [Example 175, 2-{3-[3-(2,2-difluoroethoxy)-4-(2-methyl-1,3-oxazol-5-yl)phenyl]-8-(3,4-difluorophenoxy)-5,6,7,8-tetrahydro[1,2,4]-triazolo[4,3-a]pyridin-8-yl}propan-2-ol]
34	–	COc1nc(-c2nnc3n2CCC[C@]3(Oc2cc(F)c(F)c(F)c2)C(C)(C)O)ccc1-n1cnc(C)c1 [Example 177, 2-{(8R)-3-[6-methoxy-5-(4-methyl-1H-imidazol-1-yl)pyridin-2-yl]-8-(3,4,5-trifluorophenoxy)-5,6,7,8-tetrahydro[1,2,4]triazolo[4,3-a]pyridin-8-yl}propan-2-ol monophosphate]
–	168	Cc1ncc(-c2ccc(-c3nnc4n3CCCC4(Oc3cc(F)c(F)c(F)c3)C(C)(C)O)cc2)o1 (centres unmarked) [Example 178, 2-{3-[4-(2-methyl-1,3-oxazol-5-yl)phenyl]-8-(3,4,5-trifluorophenoxy)-5,6,7,8-tetrahydro[1,2,4]triazolo[4,3-a]pyridin-8-yl}propan-2-ol]
